According to patent US8629163B2, “Tetrakis-quaternary ammonium salts and methods for modulating neuronal nicotinic acteylcholine receptors” (University of Kentucky Research Foundation, priority 2007, dated 2014):

Experiments:
[1] = molecular target: T1, α4β2 neuronal nicotinic acetylcholine receptors (Rattus norvegicus, UniProt P09483+P12390); assay: Inhibition of [^3H]nicotine (NIC) binding to rat brain membranes; conditions: % inhibition at 100 nM analog; 3 nM [^3H]NIC; nonspecific 10 μM cytisine; 3-4 independent experiments
T1 construct: The brain tissue was homogenized with a Tekmar Polytron; from tissue; host or cells: rat brain membranes (whole brain without cortex and cerebellum)
T1 sequence (P09483 31-630): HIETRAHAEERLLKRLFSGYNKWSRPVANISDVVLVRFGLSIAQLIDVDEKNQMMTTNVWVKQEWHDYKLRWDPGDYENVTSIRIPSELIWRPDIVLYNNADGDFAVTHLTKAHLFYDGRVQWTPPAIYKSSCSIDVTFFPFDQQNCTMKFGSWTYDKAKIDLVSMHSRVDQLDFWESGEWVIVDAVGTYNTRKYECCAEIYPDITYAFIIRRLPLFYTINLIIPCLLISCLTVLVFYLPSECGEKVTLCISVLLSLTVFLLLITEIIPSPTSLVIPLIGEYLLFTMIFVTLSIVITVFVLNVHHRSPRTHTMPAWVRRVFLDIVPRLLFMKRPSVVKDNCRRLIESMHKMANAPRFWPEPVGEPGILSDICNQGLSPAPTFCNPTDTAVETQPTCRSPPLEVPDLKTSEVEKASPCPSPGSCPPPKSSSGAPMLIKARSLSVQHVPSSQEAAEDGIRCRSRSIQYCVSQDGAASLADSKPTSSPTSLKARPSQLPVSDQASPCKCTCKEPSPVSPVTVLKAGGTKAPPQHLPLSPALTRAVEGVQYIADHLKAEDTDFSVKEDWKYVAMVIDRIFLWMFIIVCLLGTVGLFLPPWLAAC
T1 sequence (P12390 25-500): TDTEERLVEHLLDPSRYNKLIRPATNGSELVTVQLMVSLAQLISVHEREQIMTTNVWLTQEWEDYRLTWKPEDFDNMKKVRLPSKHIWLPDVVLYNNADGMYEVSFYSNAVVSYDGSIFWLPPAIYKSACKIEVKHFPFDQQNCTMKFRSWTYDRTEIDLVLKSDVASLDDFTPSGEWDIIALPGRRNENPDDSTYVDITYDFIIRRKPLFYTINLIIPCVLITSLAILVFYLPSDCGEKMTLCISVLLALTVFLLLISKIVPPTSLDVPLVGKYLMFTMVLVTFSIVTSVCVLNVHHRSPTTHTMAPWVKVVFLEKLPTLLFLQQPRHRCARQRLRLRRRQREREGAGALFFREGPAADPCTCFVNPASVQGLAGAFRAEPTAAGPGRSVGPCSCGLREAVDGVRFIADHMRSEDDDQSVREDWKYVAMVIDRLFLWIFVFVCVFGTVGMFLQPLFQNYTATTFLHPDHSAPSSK
Description: (§1) Rat brain was dissected into the whole brain tissue without cortex and cerebellum and was frozen in liquid nitrogen and stored at −70° C. until use. The brain tissue was homogenized with a Tekmar Polytron (setting 40) in 20 volumes of ice-cold hypotonic buffer (2 mM HEPES, 14.4 mM NaCl, 0.15 mM KCl, 0.2 mM CaCl2 and […], pH=7.5). The homogenate was centrifuged at 25,000×g for 17 minutes at 4° C. The pellet was resuspended in 20 volumes of the same buffer, and incubated for 10 min at 37° C. The resuspension was cooled to 4° C. and then centrifuged at the above parameters. The pellet was resuspended by sonicaton and centrifuged using the same conditions. The final pellet was stored at −20° C. under 10 ml of the incubation buffer and was suspended just before incubation with radioligand.
(§2) The binding of [^3H]NIC and [^3H]MLA to probe α4β2 and α7-type neuronal nicotinic acetylcholine receptors, respectively, was determined using [^3H]NIC (67 Ci/mmol) and [^3H]MLA (60 Ci/mmol), purchased from Perkin Elmer Life Sciences, Boston, Mass., U.S.A. and American Radiolabel Chemicals, Inc., St. Louis, Mo., U.S.A. Binding was performed in duplicate, in a final volume of 250 μl of the incubation medium, containing 20 mM HEPES, 144 mM NaCl, 1.5 mM KCl, 2 mM CaCl2, and 1 mM MgSO4, pH=7.5. Reaction was initiated by the addition of 100 μL of membrane suspension to the samples containing a desired concentration of test compounds and 3 nM [^3H]NIC or 3 nM [^3H]MLA (final concentrations) and incubated for 60 min at room temperature. Total binding was measured in the absence of unlabelled ligand and nonspecific binding was determined in the presence of 10 μM cytisine, for [^3H]NIC binding, and 10 μM nicotine for [^3H]MLA. The binding reaction was terminated by dilution of samples with 3 mL of ice-cold incubation buffer followed by immediate filtration through Unifilter-96 GFB-filter plates presoaked in 0.5% polyethylenimine using a Filtermate Harvester (Perkin Elmer, Shelton, Conn., U.S.A.). Filters were rinsed five times with 350 μL of ice-cold buffer, and then filter plates were dried at 48° C. for 60 min, bottom sealed and each well filled with 40 μL of Packard Microscint-20 cocktail. After 60 min of gentle shaking, the filter plates were top sealed and radioactivity measured using a Packard TopCount NXT scintillation counter. CPMs were processed through a Packard Windows NT operating system. Protein was measured using the Bradford dye-binding procedure with bovine serum albumin as the standard.
(§3) The ability of a probe concentration of 100 nM of the tetrakis-quaternary ammonium salts to inhibit specific binding was evaluated.
(§4) ^aData are % inhibition at 100 nM concentration of analog for 3-4 independent experiments. Specific binding in the [^3H]NIC binding assay is calculated as the difference between the total binding of 3 nM [^3H]NIC and nonspecific binding in the presence of 10 μM cytisine. Specific binding for the [^3H]MLA binding assay is calculated as the difference between the total binding of 3 nM [^3H]MLA to the receptors alone and its nonspecific binding in the presence of 10 μM nicotine. Analog-induced inhibition of nicotine-evoked [^3H]DA release is calculated as a percent of that in the absence of analog.

[2] = molecular target: T2, α7-type neuronal nicotinic acetylcholine receptors (Rattus norvegicus, UniProt Q05941); assay: Inhibition of [^3H]methyllycaconitine (MLA) binding to rat brain membranes; conditions: % inhibition at 100 nM analog; 3 nM [^3H]MLA; nonspecific 10 μM nicotine; 3-4 independent experiments
T2 construct: The brain tissue was homogenized with a Tekmar Polytron; from tissue; host or cells: rat brain membranes (whole brain without cortex and cerebellum)
T2 sequence (Q05941 23-502): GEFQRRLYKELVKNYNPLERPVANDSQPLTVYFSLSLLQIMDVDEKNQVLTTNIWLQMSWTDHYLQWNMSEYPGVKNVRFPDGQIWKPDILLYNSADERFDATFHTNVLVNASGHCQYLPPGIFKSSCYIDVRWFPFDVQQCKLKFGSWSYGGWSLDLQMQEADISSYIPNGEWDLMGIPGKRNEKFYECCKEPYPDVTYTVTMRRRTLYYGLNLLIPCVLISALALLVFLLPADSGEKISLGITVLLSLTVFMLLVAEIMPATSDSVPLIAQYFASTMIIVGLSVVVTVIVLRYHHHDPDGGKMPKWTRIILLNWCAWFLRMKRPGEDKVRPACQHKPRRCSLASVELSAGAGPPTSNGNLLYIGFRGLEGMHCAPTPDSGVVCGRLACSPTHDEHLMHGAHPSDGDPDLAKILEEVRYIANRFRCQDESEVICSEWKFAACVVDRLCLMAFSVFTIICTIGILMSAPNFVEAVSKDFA
Description: as §1, §2, §3, §4

[3] = system: rat striatal slices; assay: Nicotine-evoked [^3H]dopamine release (overflow) from superfused rat striatal slices; type: cell-based; conditions: for inhibition at 0.1 µM: % inhibition at 100 nM analog, 10 μM S(-)nicotine, rat striatal slices, read-out: Inhibition of Nicotine-evoked [^3H]DA release; for IC50: Rattus norvegicus, full concentration response assay, 4-5 independent experiments in duplicate, 10 μM nicotine, read-out: IC50, inhibition of nicotine-evoked [^3H]DA release (converted)
Description: Rat striatal slices (500 μm thickness, 6 mg wet weight) were incubated for 30 minutes in Krebs buffer (118 mM NaCl, 4.7 mM KCl, 1.2 mM MgCl2, 1.0 mM NaH2PO4, 1.3 mM CaCl2, 11.1 mM glucose, 25 mM NaHCO3, 0.11 mM L-ascorbic acid, and 0.004 mM disodium EDTA; pH 7.4, and saturated with 95% O2/5% CO2) in a metabolic shaker at 34° C. Slices were rinsed with 15 mL of fresh buffer and incubated for an additional 30 minutes in fresh buffer containing 0.1 μM [^3H]dopamine (DA; 6 slices/3 mL). Subsequently, slices were rinsed with 15 mL of fresh buffer and each slice transferred to a superfusion chamber. Slices were superfused (0.6 mL/min) for 60 minutes with Krebs buffer containing nomifensine (10 μM) and pargyline (10 μM) and maintained at 34° C., pH 7.4, with continual aeration (95% O2/5% CO2). Two 4-minute samples (2.4 mL each) were collected to determine basal outflow of [^3H]DA. Slices were superfused for 36 min following addition of the analogs to the superfusion buffer after the collection of the second sample and nine 4-minute samples were collected. For initial probe assays, the concentration of analog was 100 nM. For concentration-response studies, the concentration of analog varied from 1 nM to 10 μM, and the effect of each concentration was determined using striatal slices obtained from an individual animal (repeated measures design). Subsequently, S(−)nicotine (10 μM) was added to the buffer and nine additional 4-minute samples were collected. At the end of the experiment, each slice was solubilized and the [^3H] content of the tissue determined.
Radioactivity in the superfusate and tissue samples was determined by liquid scintillation spectroscopy. Fractional release for tritium collected in each sample was divided by the total tritium present in the tissue at the time of sample collection and was expressed as a percentage of total tritium. Basal [^3H]outflow was calculated from the average of the tritium collected in the two […] samples just before addition of the analog. The sum of the increase in collected tritium resulting from either exposure to the test compound or exposure to S(−)nicotine in the absence and presence of the test compound equaled total [^3H]overflow. [^3H]Overflow was calculated by subtracting the [^3H]outflow during an equivalent period of prestimulation from the values in samples collected during and after drug exposure. Inasmuch as the radiolabelled compounds were not separated and identified, the tritium collected in superfusate is referred to as either [^3H]outflow or [^3H]overflow, rather than as [^3H]DA. [^3H]Overflow primarily represents [^3H]DA in the presence of nomifensine and pargyline in the superfusion buffer. […]
Analogs were also evaluated for their ability to inhibit NIC evoked [^3H]DA release. Antagonist activity was evaluated by comparing the NIC-evoked [^3H]overflow in the absence and presence of the analogs (see Table 1). […] Data are expressed as M±SEM. Control represents absence of compound. N=4/analog, *p<0.05
as §4
^bIC50 from full concentration response assay; data from 4-5 independent experiments, each performed in duplicate.

| Structure (SMILES) | Inhibition of [^3H]Nicotine binding [1] | Inhibition of [^3H]MLA binding [2] | inhibition at 0.1 µM [3] | IC50 [3] |
| --- | --- | --- | --- | --- |
| [Br-].[Br-].[Br-].[Br-].c1ccc(Cc2ccc[n+](CCCCCc3cc(CCCCC[n+]4cccc(Cc5ccccc5)c4)c(CCCCC[n+]4cccc(Cc5ccccc5)c4)cc3CCCCC[n+]3cccc(Cc4ccccc4)c3)c2)cc1 | 13 ± 3.3% | 16 ± 8% | 54 ± 10% | 28 nM |
| Cc1cc(C)c[n+](CCCC#Cc2cc(C#CCCC[n+]3cc(C)cc(C)c3)c(C#CCCC[n+]3cc(C)cc(C)c3)cc2C#CCCC[n+]2cc(C)cc(C)c2)c1.[Br-].[Br-].[Br-].[Br-] | 0 ± 05% | 3.9 ± 3.9% | 12 ± 5% |  |
| OCCCc1ccc[n+](CCCCCc2cc(CCCCC[n+]3cccc(CCCO)c3)c(CCCCC[n+]3cccc(CCCO)c3)cc2CCCCC[n+]2cccc(CCCO)c2)c1.[Br-].[Br-].[Br-].[Br-] | 9.6 ± 5.2% | 20 ± 13% | 64 ± 15% | 3.38 nM |
| [Br-].[Br-].[Br-].[Br-].c1ccc2c[n+](CCCCCc3cc(CCCCC[n+]4ccc5ccccc5c4)c(CCCCC[n+]4ccc5ccccc5c4)cc3CCCCC[n+]3ccc4ccccc4c3)ccc2c1 | 6.5 ± 6.5% | 24 ± 13% | 63 ± 12% | 56 nM |
| Cc1cc[n+](CCCC#Cc2cc(C#CCCC[n+]3ccc(C)c(C)c3)c(C#CCCC[n+]3ccc(C)c(C)c3)cc2C#CCCC[n+]2ccc(C)c(C)c2)cc1C.[Br-].[Br-].[Br-].[Br-] | 9.8 ± 1.2% | 0.6 ± 0.6% | 17 ± 6% |  |
| CN1CCCC1c1ccc[n+](CCCC#Cc2cc(C#CCCC[n+]3cccc(C4CCCN4C)c3)c(C#CCCC[n+]3cccc(C4CCCN4C)c3)cc2C#CCCC[n+]2cccc(C3CCCN3C)c2)c1.[Br-].[Br-].[Br-].[Br-] (stereo not shown) | 38 ± 7.4% | 15 ± 2.0% | 31 ± 13% |  |
| Cc1cc[n+](CCCCCc2cc(CCCCC[n+]3ccc(C)c(C)c3)c(CCCCC[n+]3ccc(C)c(C)c3)cc2CCCCC[n+]2ccc(C)c(C)c2)cc1C.[Br-].[Br-].[Br-].[Br-] | 0.5 ± 0.5% | 18 ± 10% | 36 ± 11% |  |
| Cc1cc(C)c[n+](CCCCCc2cc(CCCCC[n+]3cc(C)cc(C)c3)c(CCCCC[n+]3cc(C)cc(C)c3)cc2CCCCC[n+]2cc(C)cc(C)c2)c1.[Br-].[Br-].[Br-].[Br-] | 3.7 ± 3.7% | 15 ± 8% | 45 ± 14% |  |
| Cc1cc[n+](CCCCCc2cc(CCCCC[n+]3ccc(C)cc3)c(CCCCC[n+]3ccc(C)cc3)cc2CCCCC[n+]2ccc(C)cc2)cc1.[Br-].[Br-].[Br-].[Br-] | 12 ± 8.3% | 8.0 ± 5.3% | 46 ± 5% |  |
| Cc1cc[n+](CCCC#Cc2cc(C#CCCC[n+]3ccc(C)cc3)c(C#CCCC[n+]3ccc(C)cc3)cc2C#CCCC[n+]2ccc(C)cc2)cc1.[Br-].[Br-].[Br-].[Br-] | 24 ± 5.5% | 3.0 ± 3.0% | 35 ± 14% |  |
| OCCCc1ccc[n+](CCCC#Cc2cc(C#CCCC[n+]3cccc(CCCO)c3)c(C#CCCC[n+]3cccc(CCCO)c3)cc2C#CCCC[n+]2cccc(CCCO)c2)c1.[Br-].[Br-].[Br-].[Br-] | 0 ± 0% | 5.7 ± 5.7% | 41 ± 15% |  |
| [Br-].[Br-].[Br-].[Br-].c1c(CCCCC[n+]2ccc3c(c2)CCCC3)c(CCCCC[n+]2ccc3c(c2)CCCC3)cc(CCCCC[n+]2ccc3c(c2)CCCC3)c1CCCCC[n+]1ccc2c(c1)CCCC2 | 0.9 ± 0.9% | 27 ± 15% | 27 ± 2% | 56 nM |
| CN1CCCC1c1ccc[n+](CCCCCc2cc(CCCCC[n+]3cccc(C4CCCN4C)c3)c(CCCCC[n+]3cccc(C4CCCN4C)c3)cc2CCCCC[n+]2cccc(C3CCCN3C)c2)c1.[Br-].[Br-].[Br-].[Br-] (stereo not shown) | 7.4 ± 4.7% | 26 ± 14% | 43 ± 21% |  |
| [Br-].[Br-].[Br-].[Br-].c1ccc(-c2ccc[n+](CCCCCc3cc(CCCCC[n+]4cccc(-c5ccccc5)c4)c(CCCCC[n+]4cccc(-c5ccccc5)c4)cc3CCCCC[n+]3cccc(-c4ccccc4)c3)c2)cc1 | 6.6 ± 4.5% | 33 ± 17% | 19 ± 15% |  |
| C(#Cc1cc(C#CCCC[n+]2cccc(-c3ccccc3)c2)c(C#CCCC[n+]2cccc(-c3ccccc3)c2)cc1C#CCCC[n+]1cccc(-c2ccccc2)c1)CCC[n+]1cccc(-c2ccccc2)c1.[Br-].[Br-].[Br-].[Br-] | 0.3 ± 0.3% | 53 ± 0.8% | 37 ± 15% |  |
